Laboratory results taken from patent publication US12077503B2, “Substituted cyclic amides and their use as herbicides” (FMC CORPORATION, priority 2015, dated 2024).

Columns and labels:
Format in all cases: in vivo
Kochia (Kochia scoparia) [1] = test: Test A preemergence; details: Bassia scoparia, pre-emergence, 240 h, preemergence, 0 to 100 scale where 0 is no effect and 100 is complete control, read-out: Kochia plant response rating; for pest or weed control at 125 g/ha: 125 g ai/ha, approx. 10 d; for pest or weed control at 500 g/ha: 500 g ai/ha
Summary of the method: (§1)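 Seeds sprayed preemergence with a directed soil spray, or plants at 2 to 10 cm height and one- to two-leaf stage sprayed postemergence, with test chemicals in a non-phytotoxic solvent mixture containing surfactant, in loam soil–sand blend. Injury rated visually against untreated controls after about 10 d in greenhouse, 0 (no effect) to 100 (complete control).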

[2] = tested on: barnyardgrass (Echinochloa crus-galli); test: Test A preemergence; details: Echinochloa crus-galli, pre-emergence, 240 h, preemergence, read-out: Barnyardgrass plant response rating; for pest or weed control at 125 g/ha: 125 g ai/ha, approx. 10 d; for pest or weed control at 500 g/ha: 500 g ai/ha
Summary of the method: as §1

[3] = tested on: giant foxtail (Setaria faberii); test: Test A preemergence; details: Setaria faberi, pre-emergence, 240 h, preemergence, 0 to 100 scale where 0 is no effect and 100 is complete control, read-out: Foxtail, Giant plant response rating; for pest or weed control at 125 g/ha: 125 g ai/ha, approx. 10 d; for pest or weed control at 500 g/ha: 500 g ai/ha
Summary of the method: as §1

[4] = tested on: pigweed (Amaranthus retroflexus); test: Test A preemergence; details: Amaranthus retroflexus, pre-emergence, 240 h, preemergence, 0 to 100 scale where 0 is no effect and 100 is complete control, read-out: Pigweed plant response rating; for pest or weed control at 125 g/ha: 125 g ai/ha, approx. 10 d; for pest or weed control at 500 g/ha: 500 g ai/ha
[5] = tested on: ragweed (common ragweed, Ambrosia elatior); test: Test A preemergence; details: Ambrosia artemisiifolia, pre-emergence, 240 h, preemergence, 0 to 100 scale where 0 is no effect and 100 is complete control, read-out: Ragweed plant response rating; for pest or weed control at 125 g/ha: 125 g ai/ha, approx. 10 d; for pest or weed control at 500 g/ha: 500 g ai/ha
Summary of the method: as §1

[6] = tested on: ryegrass, Italian (Italian ryegrass, Lolium multiflorum); test: Test A preemergence; details: Lolium multiflorum, pre-emergence, 240 h, preemergence, 0 to 100 scale where 0 is no effect and 100 is complete control, read-out: Ryegrass, Italian plant response rating; for pest or weed control at 125 g/ha: 125 g ai/ha, approx. 10 d; for pest or weed control at 500 g/ha: 500 g ai/ha
Summary of the method: as §1

[7] = tested on: Galium (catchweed bedstraw, Galium aparine); test: Test A postemergence; details: Galium, post-emergence, 240 h, postemergence, read-out: Galium plant response rating; for pest or weed control at 125 g/ha: 125 g ai/ha, visual injury on 0 to 100 scale (0 no effect, 100 complete control), approx. 10 d; for pest or weed control at 500 g/ha: 500 g ai/ha, 0 to 100 scale, 0 is no effect, 100 is complete control
Summary of the method: as §1

Kochia (Kochia scoparia) [8] = test: Test A postemergence; details: Bassia scoparia, post-emergence, 240 h, postemergence, read-out: Kochia plant response rating; for pest or weed control at 125 g/ha: 125 g ai/ha, visual injury on 0 to 100 scale (0 no effect, 100 complete control), approx. 10 d; for pest or weed control at 500 g/ha: 500 g ai/ha, 0 to 100 scale, 0 is no effect, 100 is complete control
Summary of the method: as §1

[9] = tested on: barnyardgrass (Echinochloa crus-galli); test: Test A postemergence; details: Echinochloa crus-galli, post-emergence, 240 h, postemergence, read-out: Barnyardgrass plant response rating; for pest or weed control at 125 g/ha: 125 g ai/ha, visual injury on 0 to 100 scale (0 no effect, 100 complete control), approx. 10 d; for pest or weed control at 500 g/ha: 500 g ai/ha, 0 to 100 scale, 0 is no effect, 100 is complete control
Summary of the method: as §1

[10] = tested on: blackgrass (Alopecurus myosuroides); test: Test A postemergence; details: Alopecurus myosuroides, post-emergence, 240 h, postemergence, read-out: Blackgrass plant response rating; for pest or weed control at 125 g/ha: 125 g ai/ha, visual injury on 0 to 100 scale (0 no effect, 100 complete control), approx. 10 d; for pest or weed control at 500 g/ha: 500 g ai/ha, 0 to 100 scale, 0 is no effect, 100 is complete control
Summary of the method: as §1

corn (Zea mays) = test: Test A postemergence; details: Zea mays, post-emergence, 240 h, postemergence, read-out: Corn plant response rating; for plant injury at 125 g/ha: 125 g ai/ha, visual injury on 0 to 100 scale (0 no effect, 100 complete control), approx. 10 d; for plant injury at 500 g/ha: 500 g ai/ha, 0 to 100 scale, 0 is no effect, 100 is complete control
Summary of the method: as §1

[11] = tested on: giant foxtail (Setaria faberii); test: Test A postemergence; details: Setaria faberi, post-emergence, 240 h, postemergence, read-out: Foxtail, Giant plant response rating; for pest or weed control at 125 g/ha: 125 g ai/ha, visual injury on 0 to 100 scale (0 no effect, 100 complete control), approx. 10 d; for pest or weed control at 500 g/ha: 500 g ai/ha, 0 to 100 scale, 0 is no effect, 100 is complete control
Summary of the method: as §1

[12] = tested on: ragweed (common ragweed, Ambrosia elatior); test: Test A postemergence; details: Ambrosia artemisiifolia, post-emergence, 240 h, postemergence, read-out: Ragweed plant response rating; for pest or weed control at 125 g/ha: 125 g ai/ha, visual injury on 0 to 100 scale (0 no effect, 100 complete control), approx. 10 d; for pest or weed control at 500 g/ha: 500 g ai/ha, 0 to 100 scale, 0 is no effect, 100 is complete control
Summary of the method: as §1

[13] = tested on: ryegrass, Italian (Italian ryegrass, Lolium multiflorum); test: Test A postemergence; details: Lolium multiflorum, post-emergence, 240 h, postemergence, read-out: Ryegrass, Italian plant response rating; for pest or weed control at 125 g/ha: 125 g ai/ha, visual injury on 0 to 100 scale (0 no effect, 100 complete control), approx. 10 d; for pest or weed control at 500 g/ha: 500 g ai/ha, 0 to 100 scale, 0 is no effect, 100 is complete control
Summary of the method: as §1

[14] = tested on: wheat (Triticum aestivum); test: Test A postemergence; details: Triticum aestivum, post-emergence, 240 h, postemergence, read-out: Wheat plant response rating; for plant injury at 125 g/ha: 125 g ai/ha, visual injury on 0 to 100 scale (0 no effect, 100 complete control), approx. 10 d; for plant injury at 500 g/ha: 500 g ai/ha, 0 to 100 scale, 0 is no effect, 100 is complete control
Summary of the method: as §1

[15] = 0 to 100 scale where 0 is no effect and 100 is complete control

| SMILES | pest or weed control at 125 g/ha (Kochia (Kochia scoparia) [1]) [%] | pest or weed control at 500 g/ha (Kochia (Kochia scoparia) [1]) [%] | pest or weed control at 125 g/ha [2, 15] [%] | pest or weed control at 125 g/ha [3] [%] | pest or weed control at 500 g/ha [3] [%] | pest or weed control at 125 g/ha [4] [%] | pest or weed control at 500 g/ha [4] [%] | pest or weed control at 125 g/ha [5] [%] | pest or weed control at 500 g/ha [5] [%] | pest or weed control at 125 g/ha [6] [%] | pest or weed control at 500 g/ha [6] [%] | pest or weed control at 125 g/ha [7] [%] | pest or weed control at 500 g/ha [7] [%] | pest or weed control at 125 g/ha (Kochia (Kochia scoparia) [8]) [%] | pest or weed control at 500 g/ha (Kochia (Kochia scoparia) [8]) [%] | pest or weed control at 125 g/ha [9] [%] | pest or weed control at 500 g/ha [9] [%] | pest or weed control at 125 g/ha [10] [%] | pest or weed control at 500 g/ha [10] [%] | plant injury at 125 g/ha (corn (Zea mays)) [%] | further results |
| --- | --- | --- | --- | --- | --- | --- | --- | --- | --- | --- | --- | --- | --- | --- | --- | --- | --- | --- | --- | --- | --- |
| CN1CC(c2cccc(Br)c2)C(C(=O)Nc2ccccc2F)C1=O (stereo not drawn) [Compound 1132] | 0 | 0 | 90 | 100 | 100 | 0 | 0 | 0 | 0 | 30 | 50 | 0 | 30 | 0 | 0 | 90 | 90 | 30 | 50 | 60 | pest or weed control at 500 g/ha [2, 15]: 90%; plant injury at 500 g/ha (corn (Zea mays)): 80%; pest or weed control at 125 g/ha [11]: 80%; pest or weed control at 500 g/ha [11]: 90%; pest or weed control at 125 g/ha [12]: 0%; pest or weed control at 500 g/ha [12]: 0%; pest or weed control at 125 g/ha [13]: 0%; pest or weed control at 500 g/ha [13]: 30%; plant injury at 125 g/ha [14]: 30%; plant injury at 500 g/ha [14]: 70% |
| CN1C[C@H](c2cc(C(F)F)cs2)[C@@H](C(=O)Nc2ccccc2F)C1=O [Compound 1120] | 40 | 70 | 90 | 90 | 100 | 0 | 50 | 40 | 50 | 20 | 40 | 40 | 60 | 20 | 70 | 90 | 90 | 30 | 50 | 0 | pest or weed control at 500 g/ha ([2]; visual injury rating about 10 d after treatment, 0 to 100 scale (0 no effect, 100 complete control)): 100%; plant injury at 500 g/ha (corn (Zea mays)): 60%; pest or weed control at 125 g/ha [11]: 90%; pest or weed control at 500 g/ha [11]: 90%; pest or weed control at 125 g/ha [12]: 0%; pest or weed control at 500 g/ha [12]: 50%; pest or weed control at 125 g/ha [13]: 20%; pest or weed control at 500 g/ha [13]: 40%; plant injury at 125 g/ha [14]: 20%; plant injury at 500 g/ha [14]: 50% |
| CN1C[C@H](c2ccc3c(c2)OCO3)[C@@H](C(=O)Nc2cccc(F)c2F)C1=O [Compound 1126] | 70 | 80 | 90 | 90 | 90 | 30 | 60 | 60 | 50 | 0 | 70 | 50 | 40 | 50 | 70 | 90 | 90 | 20 | 40 | 60 | pest or weed control at 500 g/ha [2, 15]: 90%; plant injury at 500 g/ha (corn (Zea mays)): 90%; pest or weed control at 125 g/ha [11]: 80%; pest or weed control at 500 g/ha [11]: 90%; pest or weed control at 125 g/ha [12]: 40%; pest or weed control at 500 g/ha [12]: 40%; pest or weed control at 125 g/ha [13]: 30%; pest or weed control at 500 g/ha [13]: 50%; plant injury at 125 g/ha [14]: 50%; plant injury at 500 g/ha [14]: 70% |
